Results reported in ChEMBL document CHEMBL3885881, “DrugMatrix”.

Species on record: Rattus norvegicus
Assay: DrugMatrix - Regimen: Daily Repeat
Type: toxicity, organism-based, Sprague-Dawley
Set-up: regimen Daily Repeat, gender Male, age 6-8 weeks
Settings: in vivo, po, 800 mg/kg, route oral GAVAGE, dose level High, vehicle .5 % CMC; for BASOPHIL / EOSINOPHIL / ERYTHROCYTE COUNT / HEMATOCRIT / HEMOGLOBIN / LEUKOCYTE COUNT / LYMPHOCYTE / MEAN CORPUSCULAR HEMOGLOBIN / MEAN CORPUSCULAR HEMOGLOBIN CONCENTRATION / MEAN CORPUSCULAR VOLUME / MONOCYTE / NEUTROPHIL / PLATELET COUNT: tissue Blood; for ALANINE AMINOTRANSFERASE / ALBUMIN / ALKALINE PHOSPHATASE / ASPARTATE AMINOTRANSFERASE / BLOOD UREA NITROGEN / CARBON DIOXIDE / CHLORIDE / CHOLESTEROL / CREATINE PHOSPHOKINASE / CREATININE / GLUCOSE / LACTATE DEHYDROGENASE / LIPASE / PHOSPHORUS / POTASSIUM / SODIUM / TOTAL BILIRUBIN / TOTAL PROTEIN / URIC ACID: tissue Plasma

Structure (SMILES): Oc1ccc(O)cc1 [HYDROQUINONE]
- BASOPHIL (72 h, time 3 day): 0.25%
- EOSINOPHIL (72 h, time 3 day): 0.45%
- ERYTHROCYTE COUNT (72 h, time 3 day): 6.72 x10E6/uL
- HEMATOCRIT (72 h, time 3 day): 44.05%
- HEMOGLOBIN (72 h, time 3 day): 14.5 G/DL
- LEUKOCYTE COUNT (72 h, time 3 day): 7.7 x10E3/uL
- LYMPHOCYTE (72 h, time 3 day): 89.1%
- MEAN CORPUSCULAR HEMOGLOBIN (72 h, time 3 day): 21.6 pg
- MEAN CORPUSCULAR HEMOGLOBIN CONCENTRATION (72 h, time 3 day): 32.9 G/DL
- MEAN CORPUSCULAR VOLUME (72 h, time 3 day): 65.5 fL
- MONOCYTE (72 h, time 3 day): 1.5%
- NEUTROPHIL (72 h, time 3 day): 7.45%
- PLATELET COUNT (72 h, time 3 day): 1149.5 x10E3/uL
- ALANINE AMINOTRANSFERASE (72 h, time 3 day): 48 u/L
- ALBUMIN (72 h, time 3 day): 4.2 G/DL
- ALKALINE PHOSPHATASE (72 h, time 3 day): 309.5 u/L
- ASPARTATE AMINOTRANSFERASE (72 h, time 3 day): 52 u/L
- BLOOD UREA NITROGEN (72 h, time 3 day): 15.5 mg/dL
- CARBON DIOXIDE (72 h, time 3 day): 23 mmol/L
- CHLORIDE (72 h, time 3 day): 107.5 MEQ/L
- CHOLESTEROL (72 h, time 3 day): 80.5 mg/dL
- CREATINE PHOSPHOKINASE (72 h, time 3 day): 183 u/L
- CREATININE (72 h, time 3 day): 0.45 mg/dL
- GLUCOSE (72 h, time 3 day): 164 mg/dL
- LACTATE DEHYDROGENASE (72 h, time 3 day): 102 u/L
- LIPASE (72 h, time 3 day): 23.5 u/L
- PHOSPHORUS (72 h, time 3 day): 13.75 mg/dL
- POTASSIUM (72 h, time 3 day): 6.4 MEQ/L
- SODIUM (72 h, time 3 day): 150 MEQ/L
- TOTAL BILIRUBIN (72 h, time 3 day): 0.3 mg/dL
- TOTAL PROTEIN (72 h, time 3 day): 6.5 G/DL
- URIC ACID (72 h, time 3 day): 2.25 mg/dL
- BASOPHIL (120 h, time 5 day): 0.2%
- EOSINOPHIL (120 h, time 5 day): 0.3%
- ERYTHROCYTE COUNT (120 h, time 5 day): 6.45 x10E6/uL
- HEMATOCRIT (120 h, time 5 day): 41.5%
- HEMOGLOBIN (120 h, time 5 day): 13.7 G/DL
- LEUKOCYTE COUNT (120 h, time 5 day): 10.53 x10E3/uL
- LYMPHOCYTE (120 h, time 5 day): 89%
- MEAN CORPUSCULAR HEMOGLOBIN (120 h, time 5 day): 21.3 pg
- MEAN CORPUSCULAR HEMOGLOBIN CONCENTRATION (120 h, time 5 day): 33.1 G/DL
- MEAN CORPUSCULAR VOLUME (120 h, time 5 day): 64.4 fL
- MONOCYTE (120 h, time 5 day): 1.6%
- NEUTROPHIL (120 h, time 5 day): 6.2%
- PLATELET COUNT (120 h, time 5 day): 1513 x10E3/uL
- ALANINE AMINOTRANSFERASE (120 h, time 5 day): 36.5 u/L
- ALBUMIN (120 h, time 5 day): 4.2 G/DL
- ALKALINE PHOSPHATASE (120 h, time 5 day): 411 u/L
- ASPARTATE AMINOTRANSFERASE (120 h, time 5 day): 55 u/L
- BLOOD UREA NITROGEN (120 h, time 5 day): 15.5 mg/dL
- CARBON DIOXIDE (120 h, time 5 day): 27 mmol/L
- CHLORIDE (120 h, time 5 day): 105 MEQ/L
- CHOLESTEROL (120 h, time 5 day): 70.5 mg/dL
- CREATINE PHOSPHOKINASE (120 h, time 5 day): 206 u/L
- CREATININE (120 h, time 5 day): 0.25 mg/dL
- GLUCOSE (120 h, time 5 day): 163 mg/dL
- LACTATE DEHYDROGENASE (120 h, time 5 day): 87.5 u/L
- LIPASE (120 h, time 5 day): 20 u/L
- PHOSPHORUS (120 h, time 5 day): 12.6 mg/dL
- POTASSIUM (120 h, time 5 day): 6.1 MEQ/L
- SODIUM (120 h, time 5 day): 148 MEQ/L
- TOTAL BILIRUBIN (120 h, time 5 day): 0.55 mg/dL
- TOTAL PROTEIN (120 h, time 5 day): 6.5 G/DL
- URIC ACID (120 h, time 5 day): 2.05 mg/dL
- BASOPHIL ([…], time 14 day): 0.8%
- EOSINOPHIL ([…], time 14 day): 0.2%
- ERYTHROCYTE COUNT ([…], time 14 day): 6.87 x10E6/uL
- HEMATOCRIT ([…], time 14 day): 42.85%
- HEMOGLOBIN ([…], time 14 day): 14.03 G/DL
- LEUKOCYTE COUNT ([…], time 14 day): 14.3 x10E3/uL
- LYMPHOCYTE ([…], time 14 day): 83.92%
- MEAN CORPUSCULAR HEMOGLOBIN ([…], time 14 day): 20.45 pg
- MEAN CORPUSCULAR HEMOGLOBIN CONCENTRATION ([…], time 14 day): 32.83 G/DL
- MEAN CORPUSCULAR VOLUME ([…], time 14 day): 62.4 fL
- MONOCYTE ([…], time 14 day): 1.9%
- NEUTROPHIL ([…], time 14 day): 11.55%
- PLATELET COUNT ([…], time 14 day): 1262 x10E3/uL
- ALANINE AMINOTRANSFERASE ([…], time 14 day): 50 u/L
- ALBUMIN ([…], time 14 day): 4.45 G/DL
- ALKALINE PHOSPHATASE ([…], time 14 day): 349.75 u/L
- ASPARTATE AMINOTRANSFERASE ([…], time 14 day): 70.25 u/L
- BLOOD UREA NITROGEN ([…], time 14 day): 16.25 mg/dL
- CARBON DIOXIDE ([…], time 14 day): 30.25 mmol/L
- CHLORIDE ([…], time 14 day): 103.5 MEQ/L
- CHOLESTEROL ([…], time 14 day): 84.5 mg/dL
- CREATINE PHOSPHOKINASE ([…], time 14 day): 254.25 u/L
- CREATININE ([…], time 14 day): 0.4 mg/dL
- GLUCOSE ([…], time 14 day): 161.5 mg/dL
- LACTATE DEHYDROGENASE ([…], time 14 day): 60.75 u/L
- LIPASE ([…], time 14 day): 17.25 u/L
- PHOSPHORUS ([…], time 14 day): 12.07 mg/dL
- POTASSIUM ([…], time 14 day): 6.7 MEQ/L
- SODIUM ([…], time 14 day): 150.25 MEQ/L
- TOTAL BILIRUBIN ([…], time 14 day): 0.55 mg/dL
- TOTAL PROTEIN ([…], time 14 day): 6.97 G/DL
- URIC ACID ([…], time 14 day): 1 mg/dL
